A short description of data set [1]: AST and ALT activities and TG concentration in the plasma, 4 weeks. Format: in vivo, mice. Conditions: mean ±SD. The procedure: The liver function and plasma lipid level in the mice in each group were examined by measuring the percentage of the liver weight relative to the body weight, the triglyceride (TG) concentration in the liver, the aspartate aminotransferase (AST) activity in the plasma, the alanine aminotransferase (ALT) activity in the plasma, and the TG concentration in the plasma of the mice in each group.
The AST and ALT activities and TG concentration in the plasma were measured according to the product protocol using dedicated reagent kits for each test item (L-Type Wako AST, L-Type Wako ALT, and L-Type Wako TG M, produced by FUJIFILM Wako Pure Chemical Corporation).

Data set [2] is described as follows: Amount of short-chain fatty acids in mouse feces (GC-FID). The format is in vivo, mice. As to conditions: 4 weeks. The procedure: Short-chain fatty acids are metabolites of intestinal bacteria. The amounts of short-chain fatty acids (acetic acid, propionic acid, and butyric acid) in feces of the mice in each group (groups C, E, S, and ES) were measured.
The amounts of short-chain fatty acids in the mouse feces were measured by outsourcing to TechnoSuruga Laboratory Co., Ltd.
Immediately after collection, mouse feces was treated with liquid nitrogen and stored at −80° C. While the fecal samples were frozen, an amount of 100 mg was crushed with beads and formed into a powder, and components extracted with ethyl acetate treatment were used as detection samples. For the measurement, a gas-chromatography-flame ionization detector system (Agilent 7890B GC, produced by Agilent technologies) was used, and the concentration of each short-chain fatty acid was calculated by comparison with the amount of standard substance.

Data set [3] relates to mouse gut microbiota. As to the kind of experiment: Structural analysis of mouse gut microbiota (16S rRNA sequencing). As to conditions: 4 weeks. The format is in vivo, mice. As for the experimental part: Additionally, the gut microbiota structures of the mice in each group (groups C, E, S, and ES) were analyzed.
The mouse gut microbiota 16S rRNA sequencing was outsourced to MyMetagenome Co., Ltd.
Immediately after collection, mouse feces was treated with liquid nitrogen and stored at −80° C. While the fecal samples were frozen, treatment was performed, and the extracted nucleic acids were used as samples for sequence analysis. The measurement was performed using a next-generation sequencer (NGS) (MiniSeq, Illumina, K.K.), and the results of 16S rRNA genes (the V1-V2 region) and sequences of 5,000 reads or more from the extracted nucleic acids were used for analysis. For the analysis of bacterial flora structure, raw sequence data processing and well-known sequence data analysis were performed, and the analysis was clustered at a 96% pairwise identity cutoff for 16S reads. Similarity values were assigned to the phylum and genus categories.

The subject of data set [4] is occludin. As to the kind of experiment: Immunofluorescence staining of Occludin in colon tissue, 4 weeks. As to conditions: group ES: 2.0% v/v ethanol diet + 2.5 mg sesaminol per day oral, group E significant decrease. The format is in vivo, mice. The procedure: Next, in order to verify the longer-term effect of oral administration of sesaminol on ethanol-induced intestinal tight junction (TJ) dysfunction and leaky gut, histological analysis of colonic epithelial TJ proteins (ZO-1, Occludin, and Claudin-1) and analysis of the plasma LPS level were performed using the mice in each group (groups C, S, E, and ES) described in Example 7. Histological analysis was performed by immunofluorescence staining with anti-ZO-1, anti-Occludin, and anti-Claudin-1 antibodies, followed by observation under a fluorescence microscope. The Plasma LPS level was measured according to the method described in Example 6.

The test system of data set [5] is CYP2E1. As to the kind of experiment: Western blotting of CYP2E1 in colon tissue. Conditions: group ES: 2.0% v/v ethanol diet + 2.5 mg sesaminol per day oral, 2 weeks, vs group E. Format: in vivo, mice. From the text:
Chronic consumption of an excessive amount of ethanol has been reported to increase CYP2E1 and iNOS levels and cause ethanol-induced oxidative stress in the liver and other tissues. The nuclear factor erythroid 2-related factor 2/heme oxygenase-1 (Nrf2/HO-1) system has also been reported to be widely involved in the protection of cells from oxidative damage. Therefore, the expression levels of these proteins (CYP2E1, iNOS, and HO-1) in mouse colon tissue in the four groups (groups C, S, E, and ES) were examined by western blotting (WB).
A colon tissue sample (100 mg) was homogenized in 1 mL of an M-PER mammalian protein extraction reagent (Pierce) containing a diluent of a protease inhibitor cocktail (Nacalai Tesque, Inc.), and the resulting homogenate was centrifuged at 20,000× g at 4° C. for 15 minutes. The protein concentration of the supernatant was measured with a protein assay reagent (Bio-Rad Laboratories, Inc.), and equal amounts of proteins were subjected to SDS-PAGE. Electrophoresed proteins in the gel were transferred to a PVDF membrane, and the membrane was immersed in a blocking reagent (room temperature, overnight). The primary antibody (rabbit polyclonal antibody) was then reacted. […] The band intensities were quantified with ImageJ.

Data set [6] relates to secretory IgA. The data set is described as follows: Amount of secretory IgA in colon tissue of mice. Format: in vivo. Conditions: group ES: 2.0% v/v ethanol diet + 2.5 mg sesaminol per day oral, 4 weeks, vs group E; level similar to group C. The procedure: The effect of oral administration of sesaminol on the amount of mucus secretion in mouse colon was examined by measuring the amount of fecal mucin of the mice in each group (groups C, E, S, and ES) and the amount of secretory immunoglobulin A (sIgA) in the colon tissue of the mice.
After liquid nitrogen treatment, the amount of sigA in each colon tissue stored at −80° C. was quantified according to the product protocol of a reagent kit for measuring secretory IgA (QuickDetect (trademark) Secretory IgA (Mouse) ELISA kit, produced by BioVision, Inc.). The resulting value was converted to the secretory IgA concentration (ng/ml) per 100 mg of the tissue and evaluated.

Setting [7] is: EtOH (2.0% v/v) + Sesaminol group ES.
Where [8] appears, read: group ES: 2.0% v/v ethanol diet + 2.5 mg sesaminol per day oral.
Setting [9] is: group ES: 2.0% v/v ethanol diet + 2.5 mg sesaminol per day oral, group E significant decrease.
Where [10] appears, read: group S: 2.5 mg sesaminol per day oral, no ethanol, vs group C.

Marks after values point to notes of the source that are not given here.

In the case of `Oc1cc2c(cc1C1OCC3C(c4ccc5c(c4)OCO5)OCC13)OCO2` (stereo not drawn) [Sesaminol], in data set [1] (setting [7]), the “Plasma ALT” value is listed as 45.8 ± 6.6*^, †, ### U/L; the “Plasma AST” value is on record as 43.5 ± 7.6 U/L; the “Plasma TG” value is given as 0.65 ± 0.13 mmol/L. In addition, in data set [1] (Sesaminol (2.5 mg/d) group S), the “Plasma ALT” value was determined as 33.3 ± 5.7 U/L, the “Plasma AST” value is 41.3 ± 6.8 U/L and the “Plasma TG” value is given as 0.53 ± 0.14 mmol/L. Moreover, in data set [2] (setting [8]), the “acetic acid in the feces” value was “significant increase” and the “propionic acid in the feces” value is given as “significant increase”. Also, in data set [2] (setting [9]), the “amount of butyric acid in the feces” value is on record as “increase in the amount of butyric acid to the same level as that in group C”. Further, the “amount of short-chain fatty acids (acetic acid, propionic acid, butyric acid) in the feces” value in data set [2] (group S: 2.5 mg sesaminol per day oral, no ethanol, vs all other groups) was “significant increase in the amount of short-chain fatty acids in the feces compared with all the other groups”. In addition, the “bacterial flora structure at the phylum level (abnormalities observed in group E: Tenericutes, Verrucomicrobia, Proteobacteria, Actinobacteria increased)” value in data set [3] (setting [8]) was “recovered to the same level as group C”. Further, in data set [3] (setting [9]), the “relative abundance of the family Lachnospiraceae, the family Ruminococcaceae, and the family Tannerellaceae” value is reported as “recovered to the same level as that in group C”. For the same compound, the “relative abundance of the family Enterobacteriaceae and the family Streptococcaceae” value in data set [3] (group ES: 2.0% v/v ethanol diet + 2.5 mg sesaminol per day oral, group E significant increase) was “recovered to the same level as that in group C”. For the same compound, in data set [3] (setting [10]), the “obligate anaerobes of the phylum Bacteroidetes and the phylum Firmicutes (short-chain fatty acids-producing bacteria)” value is “increase in obligate anaerobes of the phylum Bacteroidetes and the phylum Firmicutes”; the “short-chain fatty acid-producing bacteria of the family Lachnospiraceae, the family Ruminococcaceae, and the family Tannerellaceae” value is reported as “increased in group S alone compared with group C”. Also, the “protein level of Occludin in colon tissue (fluorescence microscope observation)” value in data set [4] is listed as “improvement in all of those levels”. The CYP2E1 expression level entry in data set [5] was “significantly lower than that in group E”. The “amount of secretory IgA in colon tissue” value in data set [6] is recorded as “significantly higher than that in group E”.

The values above are taken from patent US20240408053A1, “ENTERITIS-SUPPRESSING COMPOSITION” (KOBE GAKUIN EDUCATIONAL FOUNDATION, priority 2021, published 2024).
